Literature values as cited in US20010028878A1, “In vitro maturation of human oocytes in one day” (priority 1998, published 2001).

Test system: human oocytes
Details: presence of insulin in the culture medium; recent research

For insulin, the “effect on the chance for successful pregnancy” value is listed as “negative effect”.
